From US9956293B2, “Targeted therapeutics” (Madrigal Pharmaceuticals, Inc., priority 2014, dated 2018) come the findings set out here.

Data set [1] deals with HER2. The data set is described as follows: HER2 degradation in BT-474 cells (Example 3, Western blot / in-cell imaging). To be noted: BT-474 cells; for IC50: Homo sapiens, read-out: HER2 (IC50). Format: cell-based, human.
Procedure: BT-474 cells are plated in the interior 60 wells of a 96 well black clear bottom plate (20,000 cells/well) in DMEM medium, with DMEM media in the surrounding 36 wells, and incubated at 37° C. with 5% CO2 overnight. On the second day, concentration response curve source plates are produced (10 point, 3-fold dilution of compounds in DMSO) followed by a 1:30 dilution in an intermediate dilution plate containing DMEM. Compound is transferred from the intermediate plate to the cell plate at a dilution of 1:10.
Cells are then fixed in 4% phosphate-buffered paraformaldehyde for 30 minutes at room temperature and then permeabilized by washing five times with 0.1% Triton X-100 in PBS for 5 minutes at room temperature on a shaker. […] Cells are washed 5 times with 0.1% Tween-20 in PBS for 5 minutes at room temperature on a shaker and imaged on a LI-COR Odyssey imaging station. The raw data is normalized to DRAQ5 and the HER2 EC50 is calculated using XLfit™.
Data set [2] relates to HER2. The data set can be described thus: HER2 degradation assay with BT-474 cell line (Example 12, FACS). The data set is classed as cell-based. To be noted: Homo sapiens.
The nature of data set [3]: Tissue distribution of SDC-TRAPs in tumor-bearing mice: plasma, tumor, heart (Examples 14-15). To be noted: mouse, in vivo.
Procedure: (§1) Tissue Distribution Extraction Procedure for SDC-TRAP Tumor Samples
(§2) A 150 ng/mL solution of SDC-TRAP-0002 in methanol was prepared using an internal spiking solution (500 μg/mL SDC-TRAP-0002 in DMSO). Using the 10 mM stock solutions of the SDC-TRAP molecule and its Hsp90i binding moiety and effector moiety in DMSO, spiking solutions were prepared at 0.025, 0.05, 0.1, 0.5, 1, 5, 10, 50, 100, 250, and 500 μM in DMSO. 5 μL of each spiking solution was added to a 96-deep well plate.
(§3) Quality control standards were prepared from 5 μL of 0.1, 1, and 10 μM calibration standard spiking solution added in triplicate into 96-deep well plate and adding 50 μL of matrix (plasma or homogenized tumor).
(§4) To prepare test samples, test plasma was diluted as needed using blank plasma. Tumor samples were pulverized in liquid nitrogen, weighed, and homogenized in PBS at 5× volume to sample weight. 50 μL of unknown plasma or homogenized tumor sample was mixed with 5 μL of DMSO. The samples were extracted by precipitating calibration standards, QC standards, and unknown samples with 200 μL of internal standard solution. The samples were mixed by vortex at room temperature for approximately 1.5 minutes, then centrifuge at 2-8° C. 150 μL of supernatant was collected and 25 μL of water added. Samples were mixed and analyzed by LC-MS/MS.
(§5) Samples of plasma, heart and tumor were excised from a euthanized mouse, homogenized in PBS at 5 times tissue weight and diluted in 5 μL DMSO/50 μL sample. Prior to analysis, 55 μL samples and calibration standards were precipitated in 200 μL methanol in 96-well plates. Samples were mixed on a vortex mixer for 1.5 minutes at 1500 rpm at room temperature, then centrifuged at 4400 rpm for 10 minutes at 8° C. 150 μL of each supernatant was transferred to a well of a new 96-well plate, and 25 μL of water was added and mixed with the sample. […] For the analysis of samples from female SCID mice, a gradient of solvent A (water/0.1% formic acid) and B (acetonitrile/0.1% formic acid) was used as in Table A below.
The nature of data set [4]: in vivo. To be noted: mouse.
Procedure: as §1, §2, §3, §4, §5
Where [5] appears, read: BT-474, SDC-TRAPs of the 41st table.

Take `C=CCNC1=C2C[C@@H](C)C[C@H](OC)[C@H](O)[C@@H](C)/C=C(\C)[C@H](OC(N)=O)[C@@H](OC)/C=C\C=C(/C)C(=O)NC(=CC1=O)C2=O` [17-AAG, reference compound]: the “degradation of HER2” value in data set [1] (overnight, 17-AAG at 0.5 μM) is reported as “partial degradation of HER2”.
For `CC(C)c1cc(-c2nnc(O)n2-c2ccc3c(ccn3CCOCCNC(=O)CCCC(=O)Nc3cccc4c3CN(C3CCC(=O)NC3=O)C4=O)c2)c(O)cc1O` (centres unmarked) [SDC-TRAP-0015, N1-(2-(2-(5-(3-(2,4-dihydroxy-5-isopropylphenyl)-5-hydroxy-4H-1,2,4-triazol-4-yl)-1H-indol-1-yl)ethoxy)ethyl)-N5-(2-(2,6-dixopiperidin-3-yl)-1-oxoisoindolin-4-yl)glutaramide], the IC50 in data set [2] (BT-474 cells) and in data set [1] was 2.35 µM each time.
On to `CC(C)c1cc(-c2nnc(O)n2-c2ccc3c(ccn3CCC(=O)Nc3cccc4c3CN(C3CCC(=O)NC3=O)C4=O)c2)c(O)cc1O` (centres unmarked) [SDC-TRAP-0017, 3-(5-(3-(2,4-dihydroxy-5-isopropylphenyl)-5-hydroxy-4H-1,2,4-triazol-4-yl)-1H-indol-1-yl)-N-(2-(2,6-dioxopiperidin-3-yl)-1-oxoisoindolin-4-yl)propanamide], for which the IC50 was greater than 10 µM in data set [2] (BT-474 cells) and greater than 5 µM in data set [1].
Turning to `CC(C)c1cc(-c2nnc(O)n2-c2ccc3c(ccn3CCN(C)C(=O)CCCC(=O)Nc3cccc4c3CN(C3CCC(=O)NC3=O)C4=O)c2)c(O)cc1O` (centres unmarked) [SDC-TRAP-0018, N1-(2-(5-(3-(2,4-dihydroxy-5-isopropylphenyl)-5-hydroxy-4H-1,2,4-triazol-4-yl)-1H-indol-1-yl)ethyl)-N5-(2-(2,6-dioxopiperidin-3-yl)-1-oxoisoindolin-4-yl)-N1-methylglutaramide], the figures for the IC50 in data set [2] (BT-474 cells) and in data set [1] were 8.21 µM and greater than 5 µM, respectively.
As for `CC(C)c1cc(-c2nnc(O)n2-c2ccc3c(ccn3CCN(C)C(=O)c3ccc(CCc4c[nH]c5nc(N)[nH]c(=O)c45)cc3)c2)c(O)cc1O` [SDC-TRAP-0019, 4-(2-(2-amino-4-oxo-4,7-dihydro-3H-pyrrolo[2,3-d]pyrimidin-5-yl)ethyl)-N-(2-(5-(3-(2,4-dihydroxy-5-isopropylphenyl)-5-hydroxy-4H-1,2,4-triazol-4-yl)-1H-indol-1-yl)ethyl)-N-methylbenzamide], the half-maximal inhibitory concentration (IC50) in data set [2] (setting [5]) and in data set [1] was 4.42 µM each time.
Turning to `CC(C)c1cc(-c2nnc(O)n2-c2ccc3c(ccn3CCOCCNC(=O)c3ccc(CCc4c[nH]c5nc(N)[nH]c(=O)c45)cc3)c2)c(O)cc1O` [SDC-TRAP-0020, 4-(2-(2-amino-4-oxo-4,7-dihydro-3H-pyrrolo[2,3-d]pyrimidin-5-yl)ethyl)-N-(2-(2-(5-(3-(2,4-dihydroxy-5-isopropylphenyl)-5-hydroxy-4H-1,2,4-triazol-4-yl)-1H-indol-1-yl)ethoxy)ethyl)benzamide], the IC50 in data set [2] (setting [5]) and in data set [1] was greater than 5 µM in each case.
As to `CC(C)c1cc(-c2nnc(O)n2-c2ccc3c(ccn3CCN(C)C(=O)NCC(=O)Nc3cccc4c3CN(C3CCC(=O)NC3=O)C4=O)c2)c(O)cc1O` (centres unmarked) [SDC-TRAP-0021, 2-(3-(2-(5-(3-(2,4-dihydroxy-5-isopropylphenyl)-5-hydroxy-4H-1,2,4-triazol-4-yl)-1H-indol-1-yl)ethyl)-3-methylureido)-N-(2-(2,6-dioxopiperidin-3-yl)-1-oxoisoindolin-4-yl)acetamide], the concentration for half-maximal inhibition (IC50) in data set [2] (BT-474 cells) and in data set [1] was greater than 5 µM throughout.
In data set [3], `CCc1c2c(nc3ccc(OC(=O)N4CCN(c5ccc(-n6c(O)nnc6-c6cc(C(C)C)c(O)cc6O)cc5)CC4)cc13)-c1cc3c(c(=O)n1C2)COC(=O)C3(O)CC` (centres unmarked) [SDC-TRAP-0045, 4,11-diethyl-4-hydroxy-3,14-dioxo-3,4,12,14-tetrahydro-1H-pyrano[3′,4′:6,7]indolizino[1,2-b]quinolin-9-yl 4-(4-(3-(2,4-dihydroxy-5-isopropylphenyl)-5-hydroxy-4H-1,2,4-triazol-4-yl)phenyl)piperazine-1-carboxylate] displayed a Kp at 6 h of 1.35, a Kp at 12 h of 8.02, a concentration ratio (Kp) at […] of 0.00624 and a concentration at 6 h of 1880 nM. In data set [3], this compound gave a concentration at 12 h of 141 nM and a concentration at 24 h of 11.3 nM.
Regarding `CCc1c2c(nc3ccc(OC(=O)N4CCN(Cc5ccc(-n6c(O)nnc6-c6cc(C(C)C)c(O)cc6O)cc5)CC4)cc13)-c1cc3c(c(=O)n1C2)COC(=O)C3(O)CC` (centres unmarked) [SDC-TRAP-0046, 4,11-diethyl-4-hydroxy-3,14-dioxo-3,4,12,14-tetrahydro-1H-pyrano[3′,4′:6,7]indolizino[1,2-b]quinolin-9-yl 4-(4-(3-(2,4-dihydroxy-5-isopropylphenyl)-5-hydroxy-4H-1,2,4-triazol-4-yl)benzyl)piperazine-1-carboxylate], in data set [3], the Kp at 6 h came out at 0.844, the Kp at 12 h was 2.2, the Kp at 24 h was determined as 40.3 and the partition ratio (Kp) at […] came out at 0.0193. In data set [3], this compound returned a concentration at 6 h of 5880 nM, a concentration at 12 h of 2370 nM and a concentration at 24 h of 54.2 nM.
As to `CCc1c2c(nc3ccc(O)cc13)-c1cc3c(c(=O)n1C2)COC(=O)C3(CC)OC(=O)CN1CCN(c2ccc(-n3c(O)nnc3-c3cc(C(C)C)c(O)cc3O)cc2)CC1` (centres unmarked) [SDC-TRAP-0056, 4,11-diethyl-9-hydroxy-3,14-dioxo-3,4,12,14-tetrahydro-1H-pyrano[3′,4′:6,7]indolizino[1,2-b]quinolin-4-yl 2-(4-(4-(3-(2,4-dihydroxy-5-isopropylphenyl)-5-hydroxy-4H-1,2,4-triazol-4-yl)phenyl)piperazin-1-yl)acetate], the Kp in data set [4] (Tumor/Plasma Ratio, Tissue Distribution Data for SDC-TRAP-0056, time 6 h) worked out at 1.28; in data set [4] (Tumor/Plasma Ratio, Tissue Distribution Data for SDC-TRAP-0056, time 12 h), 1.95; in data set [4] (Tumor/Plasma Ratio, Tissue Distribution Data for SDC-TRAP-0056, time […]), 0.00525.
For the compound `COc1ccc(-c2cnoc2-c2cc(OC)c(OC)c(OC)c2)cc1OC(=O)N1CCN(Cc2ccc(-n3c(O)nnc3-c3cc(C(C)C)c(O)cc3O)cc2)CC1` [SDC-TRAP-0098, 2-Methoxy-5-(5-(3,4,5-trimethoxyphenyl)isoxazol-4-yl)phenyl-4-(4-(3-(2,4-dihydroxy-5-isopropylphenyl)-5-hydroxy-4H-1,2,4-triazol-4-yl)benzyl)piperazine-1-carboxylate], in data set [3], the Kp at 1 h was found to be 0.62, the Kp at 6 h was 8.22, the concentration ratio (Kp) at 24 h is 300 and the Kp at […] turned out to be 0.01.
Turning to `CC(C)c1cc(-c2nnc(O)n2-c2ccc(CC3CCN(CC(=O)Nc4cccc5c4CN(C4CCC(=O)NC4=O)C5=O)CC3)cc2)c(O)cc1O` (centres unmarked) [SDC-TRAP-0116, 2-(4-(4-(3-(2,4-dihydroxy-5-isopropylphenyl)-5-hydroxy-4H-1,2,4-triazol-4-yl)benzyl)piperidin-1-yl)-N-(2-(2,6-dioxopiperidin-3-yl)-1-oxoisoindolin-4-yl)acetamide], in data set [4] (Plasma Conc.), the concentration at 1 h was determined as 65200 nM, the concentration at 6 h came to 595 nM, the concentration at 24 h turned out to be 11.1 nM and the concentration at 48 h was 31.5 nM. In data set [4] (Tumor/Plasma Ratio), the Kp at 1 h turned out to be 0.21, the Kp at 6 h was determined as 10.2, the Kp at 24 h was 251 and the partition ratio (Kp) at 48 h was 46.5. In data set [4] (Tumor/Plasma Ratio), the Kp at […] stood at 0.03. The compound further had an IC50 in data set [2] (BT-474 cells) of 0.967 µM.
With `CCNC(=O)c1nnc(-c2cc(C(C)C)c(O)cc2O)n1-c1ccc(Oc2ccc(C(=O)N3CCC(C(=O)OC4(CC)C(=O)OCc5c4cc4n(c5=O)Cc5c-4nc4ccc(O)cc4c5CC)CC3)cc2)cc1` (centres unmarked) [SDC-TRAP-0154, 4,11-Diethyl-9-hydroxy-3,14-dioxo-3,4,12,14-tetrahydro-1H-pyrano[3′,4′:6,7]indolizino[1,2-b]quinolin-4-yl 1-(4-(4-(3-(2,4-dihydroxy-5-isopropylphenyl)-5-(ethylcarbamoyl)-4H-1,2,4-triazol-4-yl)phenoxy)benzoyl)piperidine-4-carboxylate], the Kp in data set [4] (Tumor/Plasma Ratio, Tissue Distribution Data for SDC-TRAP-0154, time 1 h) worked out at 0.06; in data set [4] (Tumor/Plasma Ratio, Tissue Distribution Data for SDC-TRAP-0154, time 6 h) it was 1.86; in data set [4] (Tumor/Plasma Ratio, Tissue Distribution Data for SDC-TRAP-0154, time 24 h), 11.9; in data set [4] (Tumor/Plasma Ratio, Tissue Distribution Data for SDC-TRAP-0154, time 48 h), 86; in data set [4] (Tumor/Plasma Ratio, Tissue Distribution Data for SDC-TRAP-0154, time […]) it was 0.01.
For `CC(C)c1cc(-c2nnc(O)n2-c2ccc(CN3CCN(C(=O)Oc4ccc(COC(=O)Nc5cccc6c5CN(C5CCC(=O)NC5=O)C6=O)cc4)CC3)c(F)c2)c(O)cc1O` (centres unmarked) [SDC-TRAP-0171, 4-((((2-(2,6-dioxopiperidin-3-yl)-1-oxoisoindolin-4-yl)carbamoyl)oxy)methyl)phenyl-4-(4-(3-(2,4-dihydroxy-5-isopropylphenyl)-5-hydroxy-4H-1,2,4-triazol-4-yl)-2-fluorobenzyl)piperazine-1-carboxylate], in data set [3], the Kp at 1 h amounted to 0.249, the Kp at 6 h came to 3.1, the Kp at 24 h stood at 407 and the Kp at […] was determined as 0.0164. In data set [3], this compound displayed a concentration at 1 h of 32200 nM, a concentration at 6 h of 1210 nM and a concentration at 24 h of 1.62 nM.
In data set [3], `CCNC(=O)c1nnc(-c2cc(C(C)C)c(O)cc2O)n1-c1ccc(CN2CCC(C(=O)N3CCN(c4cc(C)c(OC(=O)Nc5cccc6c5CN(C5CCC(=O)NC5=O)C6=O)c(C)c4)CC3)CC2)cc1` (centres unmarked) [SDC-TRAP-0195, 4-(4-(1-(4-(3-(2,4-dihydroxy-5-isopropylphenyl)-5-(ethylcarbamoyl)-4H-1,2,4-triazol-4-yl)benzyl)piperidine-4-carbonyl)piperazin-1-yl)-2,6-dimethylphenyl (2-(2,6-dioxopiperidin-3-yl)-1-oxoisoindolin-4-yl)carbamate] came in with a Kp at 1 h of 0.109, a Kp at 6 h of 2.36, a Kp at 24 h of 5.5 and a Kp at […] of 0.014. In data set [3], this compound displayed a concentration at 1 h of 211000 nM, a concentration at 6 h of 7230 nM and a concentration at 24 h of 2030 nM.
